From PubChem BioAssay AID1249 (Columbia University Molecular Screening Center, 2008)
The source made the active and inactive calls. No rule for the calls is given here.

experiment: cellular cytoskeleton assembly phenotype modulators – imaging, high-content imaging, retest and dose response, confirmation (AID 1249); details: cell-based imaging, cytoskeleton assembly phenotype, high content; at 2 µM; active compounds read high;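 also: compound exposure lasted 24 h before fixation; plate controls were untreated cells for no effect and reference compound treated cells for full effect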

Row | Compound | inhibition
1 | N#Cc1cc2c(nc1SCC(=O)N1CCCCC1)CCCC2 | 2.1% (inactive)
2 | COc1ccc(Cl)c(NC(=O)Nc2c(C)n(-c3ccccc3)c(=O)n2C)c1 | 0.8% (inactive)
3 | COc1ccc(S(=O)(=O)Nc2cc3c(C(C)=O)c(C)oc3c3ccccc23)cc1 | -5.1% (inactive)
4 | Cc1ccccc1OCC(=O)Nc1ccc2c(c1)COC2=O | -15.6% (inactive)
5 | Clc1ccc(-n2ncc3c(NCc4ccc5c(c4)OCO5)ncnc32)cc1 | 2.6% (inactive)
6 | COc1ccccc1-c1cc(C(F)(F)F)nc(S(=O)(=O)CCCC(=O)N2CCCCC2C)n1 (centres undefined) | 7.4% (inactive)
7 | COc1ccc(Nc2nc(N3CCCC3)nc3ccccc23)c(OC)c1 | -12.3% (inactive)
8 | Clc1ccc(C2=Nn3c(nnc3-c3cccnc3)SC2)s1 | 0% (inactive)
9 | COc1ccc(CC(=O)OCc2cc3ccc(C)cc3[nH]c2=O)cc1 | 5.4% (inactive)
10 | Cn1c(SCc2nc(-c3ccc(Cl)cc3)no2)nnc1-c1cccs1 | 16.1% (inactive)
11 | CCc1nnc(NC(=O)C2c3ccccc3Oc3ccccc32)s1 | 2.3% (inactive)
12 | CN(Cc1ccccc1)C(=O)c1ccccc1NC(=O)c1ccccc1 | 5.1% (inactive)
13 | COC(=O)COc1ccc(=O)n(-c2ccccc2)n1 | -8.8% (inactive)
14 | CCOc1cc(/C=C2/C(=O)N(c3ccccc3)N=C2C)ccc1OC(=O)c1ccco1 | 4.7% (inactive)
15 | CCCOC(=O)C1C2C=C[C@]3(CN(CCc4ccccc4)C(=O)[C@H]13)O2 (some centres undefined) | -9.4% (inactive)
16 | O=C(c1ccc([N+](=O)[O-])cc1)N(Cc1ccc(Cl)cc1)N1C(=O)CCCC1=O | -0.3% (inactive)
17 | COc1ccc(-n2nnnc2S(=O)(=O)CC(=O)N2CCCCC2)cc1 | 0.7% (inactive)
18 | COc1ccc(C(=O)C(CN2CCCC2)c2ccccc2)cc1 (centres undefined) | 8.8% (inactive)
19 | COc1cc(CC(=O)Nc2ncc(C)s2)cc(OC)c1OC | -7.4% (inactive)
20 | CC(=O)NC1CC2CCCC(C1)N2 (centres undefined) | -18.6% (inactive)
21 | CC(C)NC1CS(=O)(=O)CC1O (centres undefined) | 4.9% (inactive)
22 | COc1ccc2[nH]c(=O)c(CN(Cc3ccc4c(c3)OCO4)C(C)=O)cc2c1 | 5.1% (inactive)
23 | Cc1cccc(NC(=O)CSc2nc3ccc(NC(=O)CSc4nnnn4-c4ccccc4)cc3s2)c1C | 2.9% (inactive)
24 | CCC(=O)N1c2ccc(S(=O)(=O)CCC(=O)N3CCn4c3nc3ccccc34)cc2CC1C (centres undefined) | 0% (inactive)
25 | CCCCCCOC(=O)NCC(O)c1ccccc1 (centres undefined) | 9.1% (inactive)

Row | Compound | inhibition
26 | O=C(Cc1ccc(-n2cccc2)cc1)NC1CCCCCC1 | -6.9% (inactive)
27 | CC(=O)c1cccc(S(=O)(=O)N2CCC(n3nnc4cc(F)ccc43)CC2)c1 | 6.4% (inactive)
28 | c1ccc(-n2ncc3c(NCc4ccccn4)ncnc32)cc1 | 24.5% (inactive)
29 | COC(=O)CCC(=O)Nc1cccc(Br)c1 | 4.9% (inactive)
30 | Nn1c(SCC(=O)Nc2ccc3c(c2)OCCO3)nnc1C(F)(F)F | -22.1% (inactive)
31 | O=C(c1ccc2snnc2c1)N1CCSCC1 | -15.8% (inactive)
32 | Cc1cc(C(=O)CSc2nnc(-c3ccc(F)cc3)o2)c(C)n1CC1COc2ccccc2O1 (centres undefined) | -0.5% (inactive)
33 | CCc1cccc(CC)c1N(COC)C(=O)Cn1ccccc1=N | -4.4% (inactive)
34 | CCc1nnc(NC(=O)CSc2nnc(COc3ccccc3)n2-c2ccc(C)cc2)s1 | -4.1% (inactive)
35 | CCCc1sc(N/N=C/c2ccccn2)nc1-c1ccc(Br)cc1 | -11.5% (inactive)
36 | Cc1oc2cc3c(C(=O)N4CCCCC4)c(C)oc3cc2c1C(=O)N1CCCCC1 | -4.7% (inactive)
37 | CCOC(=O)C1C(=O)NC(N2CCCCC2)=NC1c1ccco1 (centres undefined) | -0.9% (inactive)
38 | CCCCN(C)CCCNC(=O)c1ccc2c(c1)NC(=O)C(N1CCOCC1)S2 (centres undefined) | 5.4% (inactive)
39 | Cc1ccc(-n2nc3ccc(NC(=O)/C=C/c4ccco4)cc3n2)cc1C | -5.3% (inactive)
40 | COc1ccc(Nc2cc(C(=O)NCCCN3CCOCC3)c3ccccc3n2)cc1OC | 4.3% (inactive)
41 | O=[N+]([O-])c1ccc(/C=N/n2c(COc3ccccc3)n[nH]c2=S)cc1 | -4.5% (inactive)
42 | CCCCCc1ccc(-c2ccc(=O)[nH]n2)cc1 | -6.9% (inactive)
43 | O=C(NC1CCCCC1)N(CCN1CCOCC1)Cc1cc2cc3c(cc2[nH]c1=O)OCCO3 | 32.9% (inactive)
44 | COc1ccc(-c2cc(=O)[nH]c(NCc3ccccc3)n2)cc1 | -1.7% (inactive)
45 | CCc1cccc(CC)c1NC(=O)C1SC(=Nc2ccccc2C)C(c2nc3ccccc3s2)=C1N (centres undefined) | 5% (inactive)
46 | CCOC(=O)Cc1csc(SCC(=O)/C(C#N)=C(\C)N)n1 | -9.5% (inactive)
47 | O=C(N/N=C/c1ccncc1)c1ccccc1 | 1.1% (inactive)
48 | O=C(Nc1ccccc1)c1nnsc1S(=O)(=O)c1ccc(Cl)cc1 | 5.3% (inactive)
49 | Cc1cc(NC(=O)CSc2nc(-c3ccco3)cc(C(F)(F)F)n2)no1 | -2.8% (inactive)
50 | Cn1nc(C(F)(F)F)c(C(=O)Nc2ccc(F)cc2F)c1Sc1ccc(C(F)(F)F)cc1 | 13.2% (inactive)

Row | Compound | inhibition
51 | COc1ccc(CN2C(=O)[C@@H]3C(c4ccc(F)cc4)=NO[C@@H]3C2=O)cc1 | 6.5% (inactive)
52 | COC(=O)c1cccc(S(=O)(=O)N(Cc2ccco2)Cc2cc3ccc(OC)cc3[nH]c2=O)c1 | -3.3% (inactive)
53 | O=C(O)Cc1ccc(NC(=O)C2CC=CCC2C(=O)O)cc1 (centres undefined) | -9.1% (inactive)
54 | Cc1ccc(S(=O)(=O)Nc2cc(C(=O)NCCN3CCCC3)ccc2N2CCCCC2)cc1 | -7.7% (inactive)
55 | CC(C(=O)Nc1ccc(Br)cc1C(=O)c1ccccc1)N1CCOCC1 (centres undefined) | 6% (inactive)
56 | COc1ccc(NC(=O)N(Cc2ccc3c(c2)OCO3)C2CC(=O)N(c3ccc(OC)cc3)C2=O)cc1 (centres undefined) | -22.4% (inactive)
57 | O=C(O)C1CC=CCC1C(=O)N1CCCC1 (centres undefined) | 5.5% (inactive)
58 | CCOC(=O)c1ccc(NC(=O)Cn2nnc(-c3ccccc3)n2)cc1 | 1.3% (inactive)
59 | Cc1nc(S(=O)(=O)N(C)Cc2ccccc2)c(C#N)c(C)c1Cl | -5.1% (inactive)
60 | CN1C(=O)C2(NCCc3c2[nH]c2ccccc32)c2ccccc21 (centres undefined) | -6.1% (inactive)
61 | O=C(N/N=C/C=C/c1ccccc1)c1n[nH]c2c1CCC2 | 2% (inactive)
62 | CCN(CC)c1ccc(C2=NNC(=O)CC2C)cc1[N+](=O)[O-] (centres undefined) | -7.3% (inactive)
63 | CC1=NNC(=O)/C1=C\c1cn(-c2ccccc2)nc1-c1ccc(Cl)cc1 | -11.5% (inactive)
64 | CCCCSc1nc(C)cc(SCC(=O)N/N=C/c2cccc(OC)c2O)n1 | -6.7% (inactive)
65 | Cc1ccc(C(=O)CSc2nnc(COc3ccc(C#N)cc3)n2-c2ccccc2)cc1 | -3% (inactive)
66 | CCCc1[nH]nc2c1C(c1cccnc1)C(C#N)=C(N)O2 (centres undefined) | -4.7% (inactive)
67 | C=CCn1c(=O)c2c(nc3n2CC(C)CN3c2cccc(OC)c2)n(C)c1=O (centres undefined) | -8.1% (inactive)
68 | Cc1ccc(S(=O)(=O)N(CC(=O)NCc2ccco2)Cc2ccc(F)cc2)cc1 | -16.6% (inactive)
69 | C=CCNC(=O)c1c(Cl)cccc1Cl | -5.1% (inactive)
70 | Cc1ccc(-n2ncc3c(N4CCN(c5ccccc5)CC4)ncnc32)c(C)c1 | -18.4% (inactive)
71 | COc1cc2c(O)c3c(c(-c4ccc5c(c4)OCO5)c2cc1OC)C(=O)OC3 | 1.5% (inactive)
72 | CCOc1ccccc1C(=O)NCCC(=O)O | 10.6% (inactive)
73 | O=C(NCc1ccco1)c1ccc(CS(=O)(=O)Cc2ccc(Cl)cc2)o1 | -2.2% (inactive)
74 | COc1ccc(C(=O)C(CN2CCOCC2)c2ccccc2)cc1 (centres undefined) | 1.1% (inactive)
75 | O=Cc1cc2ccccc2nc1SCc1ccc(Cl)cc1 | 8.6% (inactive)

Row | Compound | inhibition
76 | CC(C)C(=O)N1CCN(c2nc(-c3ccccc3)c3c(c2C#N)CC(C)(C)OC3)CC1 | -5.6% (inactive)
77 | N#Cc1nc(-c2ccco2)oc1N1CCOCC1 | 3.4% (inactive)
78 | COc1ccc(CN2CCCCC2C(=O)Nc2ccc(OC)c(OCC(C)C)c2)cc1OC (centres undefined) | -2.9% (inactive)
79 | CN1C(=O)C(C(=O)NC(C)(C)C)C2c3ccccc3OC13CCCCC23 (centres undefined) | 1.7% (inactive)
80 | COc1ccc(C(c2sc3ncnn3c2O)N2CC(C)OC(C)C2)cc1OC (centres undefined) | 5% (inactive)
81 | Nc1cc(=O)nc(SCc2ccccc2)n1Cc1ccco1 | 3.5% (inactive)
82 | Cc1csc(NC(=O)CSc2nnc(-c3ccc(S(=O)(=O)N4CCCC4)cc3)o2)n1 | 4.6% (inactive)
83 | COc1ccc(S(=O)(=O)NC(CC(=O)NCc2ccco2)C(C)C)cc1 (centres undefined) | -5.2% (inactive)
84 | O=C(NCc1ccco1)C1CC(=O)N(c2ccc(F)cc2)C1 (centres undefined) | 2.5% (inactive)
85 | CNC(=O)c1ccccc1NC(=O)c1ccco1 | 0.5% (inactive)
86 | CCOc1ccc(NC(=O)C2CCN(C(=O)NC3CCCCC3)CC2)cc1 | -1.9% (inactive)
87 | COc1ccc(-c2nnc(SCC(=O)NC3CCCCC3)o2)cc1OC | -3.7% (inactive)
88 | CCOc1ccccc1N1CCN(C(=O)c2cccc(-c3ccc(O)cc3)c2)CC1 | 6.2% (inactive)
89 | Cc1cccc(N(CC(=O)N/N=C/c2ccc(OCC(=O)NCc3ccco3)cc2)S(C)(=O)=O)c1C | -6.2% (inactive)
90 | N=c1nc(N)nc2n1NC(c1ccc(F)cc1)=CS2 | -1.7% (inactive)
91 | Cc1cc(NC(=O)CSc2nnnn2C)n(-c2ccccc2)n1 | -7.2% (inactive)
92 | CCN1CCN(C(=O)CN(CCc2ccccc2)S(C)(=O)=O)CC1 | -9.3% (inactive)
93 | Cc1cccc(CS(=O)(=O)c2nnc([C@H](Cc3ccccc3)NC(=O)OC(C)(C)C)o2)c1 | -5% (inactive)
94 | Nc1sccc1C(=O)c1ccc(Cl)cc1 | -15.5% (inactive)
95 | COc1ccc(CCN(Cc2cc3cccc(C)c3[nH]c2=O)C(=O)N2CCCC2)cc1OC | 4.4% (inactive)
96 | Cc1nn(-c2cc(C)c3ccccc3n2)c2c1C1C(C2)C1(C)C (centres undefined) | 3.3% (inactive)
97 | COc1ccc(C2=Nn3c(nnc3-c3ccccc3OC)SC2)cc1OC | 0.9% (inactive)
98 | C=CCNC(=O)c1nn2cccnc2c1Cl | -9.5% (inactive)
99 | Cc1nccn1-c1ccc(C(F)(F)F)cc1NC=O | -12.8% (inactive)
